Measured values taken from ChEMBL document CHEMBL2177034, “Inhibition of hypoxia inducible factor-2 transcription: isolation of active modulators from marine sponges” (J Nat Prod, 2012).
Active and inactive are the calls of the source. The calls are words filed in the database; no cut-off is given here.

Legend:
786-0 [1] = assay: Downregulation of HIF1alpha mRNA expression in human 786-0 cells at 20 uM after 48 hrs by RT-PCR analysis; format: functional, cell-based
[2] = target: T1, Endothelial PAS domain-containing protein 1 (Homo sapiens, UniProt Q99814); assay: Inhibition of HIF2alpha in human 786-0 cells assessed as reduction in VEGFA mRNA expression at 20 uM after 48 hrs by RT-PCR analysis; format: cell-based
T1 sequence (Q99814 whole entry, the tested form may be a part): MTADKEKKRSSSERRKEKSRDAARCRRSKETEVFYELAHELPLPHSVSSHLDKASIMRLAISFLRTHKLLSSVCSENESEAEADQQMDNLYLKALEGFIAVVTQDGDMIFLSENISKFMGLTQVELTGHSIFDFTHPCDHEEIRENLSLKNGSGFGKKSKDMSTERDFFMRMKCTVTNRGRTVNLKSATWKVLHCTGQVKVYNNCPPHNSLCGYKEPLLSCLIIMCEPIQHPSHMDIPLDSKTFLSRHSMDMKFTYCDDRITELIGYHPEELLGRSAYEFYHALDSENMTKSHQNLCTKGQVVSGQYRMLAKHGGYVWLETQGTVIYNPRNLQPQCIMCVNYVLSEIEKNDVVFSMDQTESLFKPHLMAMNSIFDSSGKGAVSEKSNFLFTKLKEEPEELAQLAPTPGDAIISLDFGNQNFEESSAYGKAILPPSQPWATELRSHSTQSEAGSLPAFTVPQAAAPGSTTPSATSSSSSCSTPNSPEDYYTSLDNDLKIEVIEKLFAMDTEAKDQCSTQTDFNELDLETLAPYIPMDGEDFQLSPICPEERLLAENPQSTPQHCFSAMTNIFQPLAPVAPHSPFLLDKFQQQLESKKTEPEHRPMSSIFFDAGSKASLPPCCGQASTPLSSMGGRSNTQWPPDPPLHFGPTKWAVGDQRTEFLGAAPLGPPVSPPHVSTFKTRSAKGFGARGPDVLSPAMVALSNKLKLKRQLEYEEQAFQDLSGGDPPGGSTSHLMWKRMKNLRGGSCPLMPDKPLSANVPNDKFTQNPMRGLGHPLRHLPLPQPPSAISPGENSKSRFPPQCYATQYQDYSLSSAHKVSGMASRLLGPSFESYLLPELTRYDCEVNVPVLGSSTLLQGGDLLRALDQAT

[3] = target: T1, Endothelial PAS domain-containing protein 1; assay: Inhibition of HIF2alpha in human 786-0 cells assessed as reduction in CCND1 mRNA expression at 20 uM after 48 hrs by RT-PCR analysis; format: cell-based
[4] = target: T1, Endothelial PAS domain-containing protein 1; assay: Inhibition of HIF2alpha in human 786-0 cells assessed as reduction in GLUT1 mRNA expression at 20 uM after 48 hrs by RT-PCR analysis; format: cell-based
[5] = target: T1, Endothelial PAS domain-containing protein 1; assay: Inhibition of HIF2alpha in human 786-0 cells assessed as reduction in TGFalpha mRNA expression at 20 uM after 48 hrs by RT-PCR analysis; format: cell-based
[6] = Cytotoxicity against human SK-RC-28 cells expressing HIF1alpha after 2 days by XTT assay; format: functional, cell-based; details: 48 h
[7] = Cytotoxicity against human RCC4 cells expressing HIF2alpha and HIF1alpha after 2 days by XTT assay; format: functional, cell-based; details: RCC4, 48 h
786-0 [8] = assay: Cytotoxicity against human 786-0 cells expressing HIF2alpha after 2 days by XTT assay; format: functional, cell-based; details: 786-0, 48 h
786-0 [9] = assay: Inhibition of total protein expression in serum deprived human 786-0 cells at 20 uM after 48 hrs relative to control; format: cell-based; details: 786-0, 48 h, 20 µM
786-0 [10] = assay: Inhibition of HIF-mediated VEGFA protein expression in serum deprived human 786-0 cells at 20 uM after 48 hrs relative to control; format: cell-based
[11] = target: T1, Endothelial PAS domain-containing protein 1; assay: Inhibition of HIF2alpha in human 786-0 cells expressing truncated HIF1alpha assessed as reduction in luciferase activity after 24 hrs by reporter gene assay; format: cell-based
[12] = Downregulation of actin mRNA expression in human SK-RC-28 cells expressing HIF2alpha at 20 uM after 48 hrs by RT-PCr analysis; format: ADME, cell-based
[13] = Downregulation of actin mRNA expression in human RCC4 cells expressing HIF1alpha and HIF2alpha at 20 uM after 48 hrs by RT-PCr analysis; format: ADME, cell-based; details: rcc4, 48 h
786-0 [14] = assay: Downregulation of actin mRNA expression in human […] at 20 uM after 48 hrs by RT-PCr analysis; format: ADME, cell-based; details: 786-0, 48 h
[15] = target: Hypoxia-inducible factor 1-alpha (Homo sapiens) (UniProt Q16665); assay: Inhibition of HIF1alpha in human SK-RC-28 cells assessed as reduction in carbonic anhydrase 9 expression at 20 uM after 48 hrs by RT-PCR analysis; format: cell-based
Hypoxia-inducible factor 1-alpha (Homo sapiens), sequence (Q16665 whole entry, looked up): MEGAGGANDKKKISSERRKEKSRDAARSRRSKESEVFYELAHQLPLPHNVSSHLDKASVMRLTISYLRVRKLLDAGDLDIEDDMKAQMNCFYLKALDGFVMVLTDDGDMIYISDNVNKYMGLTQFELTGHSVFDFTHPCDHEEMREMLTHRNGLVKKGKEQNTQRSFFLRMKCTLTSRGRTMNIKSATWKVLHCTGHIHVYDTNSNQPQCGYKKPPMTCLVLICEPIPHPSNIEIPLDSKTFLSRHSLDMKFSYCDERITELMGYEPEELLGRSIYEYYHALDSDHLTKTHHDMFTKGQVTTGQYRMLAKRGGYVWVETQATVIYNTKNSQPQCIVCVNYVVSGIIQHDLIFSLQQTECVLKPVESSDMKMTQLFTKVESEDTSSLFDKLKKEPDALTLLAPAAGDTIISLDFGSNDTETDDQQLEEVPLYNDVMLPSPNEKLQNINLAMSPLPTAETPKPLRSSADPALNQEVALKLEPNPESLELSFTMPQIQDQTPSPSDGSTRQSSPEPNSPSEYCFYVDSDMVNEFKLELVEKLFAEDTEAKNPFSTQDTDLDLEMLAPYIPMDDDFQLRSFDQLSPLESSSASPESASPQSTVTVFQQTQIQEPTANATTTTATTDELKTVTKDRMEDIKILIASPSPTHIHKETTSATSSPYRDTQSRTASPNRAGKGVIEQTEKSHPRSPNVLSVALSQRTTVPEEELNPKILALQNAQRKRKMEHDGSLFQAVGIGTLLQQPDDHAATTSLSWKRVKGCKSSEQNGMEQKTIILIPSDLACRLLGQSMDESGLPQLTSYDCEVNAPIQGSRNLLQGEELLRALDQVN

[16] = (§1) Downregulation of HIF2alpha mRNA expression in human RCC4 cells at 20 uM after 48 hrs by RT-PCR analysis; format: functional, cell-based
[17] = (§2) Downregulation of HIF1alpha mRNA expression in human RCC4 cells at 20 uM after 48 hrs by RT-PCR analysis; format: functional, cell-based
[18] = target: Hypoxia-inducible factor 1-alpha (Homo sapiens) (UniProt Q16665); assay: Inhibition of HIF1alpha in human RCC4 cells coexpressing HIF2alpha assessed as decrease in carbonic anhydrase 9 mRNA expression at 20 uM after 48 hrs by RT-PCR analysis; format: cell-based
786-0 [19] = assay: Downregulation of carbonic anhydrase 9 expression in human 786-0 cells at 20 uM after 48 hrs by RT-PCR analysis; format: functional, cell-based
[20] = target: Hypoxia-inducible factor 1-alpha (Homo sapiens) (UniProt Q16665); assay: Inhibition of HIF1alpha in human SK-RC-28 cells assessed as reduction in VEGFA expression at 20 uM after 48 hrs by RT-PCR analysis; format: cell-based
[21] = target: Hypoxia-inducible factor 1-alpha (Homo sapiens) (UniProt Q16665); assay: Inhibition of HIF1alpha in human SK-RC-28 cells assessed as reduction in carbonic anhydrase expression at 20 uM after 48 hrs by RT-PCR analysis; format: cell-based
[22] = Downregulation of HIF2alpha mRNA expression in human SK-RC-28 cells at 20 uM after 48 hrs by RT-PCR analysis; format: functional, cell-based
[23] = Downregulation of HIF1alpha mRNA expression in human SK-RC-28 cells at 20 uM after 48 hrs by RT-PCR analysis; format: functional, cell-based
[24] = Downregulation of CCND1 mRNA expression in human SK-RC-28 cells at 20 uM after 48 hrs by RT-PCR analysis; format: functional, cell-based
[25] = Downregulation of GLUT1 mRNA expression in human SK-RC-28 cells at 20 uM after 48 hrs by RT-PCR analysis; format: functional, cell-based
[26] = Downregulation of TGFalpha mRNA expression in human SK-RC-28 cells at 20 uM after 48 hrs by RT-PCR analysis; format: functional, cell-based
[27] = as §1; format: functional, cell-based; remark: listed apart in the source
[28] = as §2; format: functional, cell-based; remark: listed apart in the source
[29] = target: Hypoxia inducible factors; HIF-1-alpha, HIF-2-alpha (Homo sapiens) (UniProt Q16665+Q99814); assay: Inhibition of HIF1alpha/2alpha in human RCC4 cells assessed as reduction in VEGFA mRNA expression at 20 uM after 48 hrs by RT-PCR analysis; format: cell-based
[30] = target: T1, Endothelial PAS domain-containing protein 1; assay: Inhibition of HIF2alpha in human RCC4 cells coexpressing HIF1alpha assessed as reduction in CCND1 mRNA expression at 20 uM after 48 hrs by RT-PCR analysis; format: cell-based
[31] = target: T1, Endothelial PAS domain-containing protein 1; assay: Inhibition of HIF2alpha in human RCC4 cells coexpressing HIF1alpha assessed as reduction in GLUT1 mRNA expression at 20 uM after 48 hrs by RT-PCR analysis; format: cell-based
[32] = target: T1, Endothelial PAS domain-containing protein 1; assay: Inhibition of HIF2alpha in human RCC4 cells coexpressing HIF1alpha assessed as reduction in TGFalpha mRNA expression at 20 uM after 48 hrs by RT-PCR analysis; format: cell-based
786-0 [33] = assay: Downregulation of HIF2alpha mRNA expression in human 786-0 cells at 20 uM after 48 hrs by RT-PCR analysis; format: functional, cell-based

## C#C[C@@H](O)/C=C/CCCCCCC#C[C@H](O)C#C/C=C/CC/C=C\CCCC/C=C\CCCCCCCCCCCCC/C=C/[C@@H](O)C#C [NEOPETROFORMYNE A]
786-0 [1]
  Activity: Active
[2]
  inhibition: Active
[3]
  inhibition: Active
[4]
  inhibition: Active
[5]
  inhibition: Active
[6]
  IC50: 35.1 µM
[7]
  IC50: 27.5 µM
786-0 [8]
  IC50: 14.4 µM
786-0 [9]
  Activity: Toxic
786-0 [10]
  inhibition: Active
[11]
  EC50: 8.7 µM
[12]
  Activity: Toxic
[13]
  Activity: Toxic
786-0 [14]
  Activity: Toxic
[15]
  inhibition: Active
[16]
  Activity: Active
[17]
  Activity: Active
[18]
  inhibition: Active
786-0 [19]
  Activity: Active
[20]
  inhibition: Active
[21]
  inhibition: Active
[22]
  Activity: Active
[23]
  Activity: Active
[24]
  Activity: Active
[25]
  Activity: Active
[26]
  Activity: Active
[27]
  Activity: Active
[28]
  Activity: Active
[29]
  inhibition: Active
[30]
  inhibition: Active
[31]
  inhibition: Active
[32]
  inhibition: Active
786-0 [33]
  Activity: Active
